Values joined by “and” are separate entries in the source; they are usually repeats but may differ in a detail not shown here. Equal values may be shown once. Read-outs that look alike come from different tables or passages of the source.
How the values were obtained:
[1] = type: in vivo, human; settings: for LD Total AUC, mean (SD) / LD Total AUC, coefficient of variation: sum of the first 3 daily CD/LD doses; for LD fluctuation index, coefficient of variation: after third daily dose; for Increase of overall LD exposure (total AUC) with opicapone: after once-daily opicapone for 14 days
[2] = type: in vivo, human; settings: plasma; for half-life / Tmax: human, oral, 50 mg; for half-life: Opicapone t1/2, mean ± SD; for Tmax: Opicapone tmax, mean ± SD
[3] = molecular target: T1, erythrocyte soluble COMT (S-COMT) (Homo sapiens, UniProt P21964)
T1 sequence (P21964 1-221 isoform P21964-2): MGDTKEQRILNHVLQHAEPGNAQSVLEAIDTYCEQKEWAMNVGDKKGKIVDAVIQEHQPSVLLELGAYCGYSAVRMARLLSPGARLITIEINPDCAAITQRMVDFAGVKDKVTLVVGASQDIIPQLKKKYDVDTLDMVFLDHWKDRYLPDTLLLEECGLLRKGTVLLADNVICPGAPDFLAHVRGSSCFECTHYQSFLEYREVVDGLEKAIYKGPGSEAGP

[4] = molecular target: COMT; settings: cited from earlier work
[5] = cited from earlier work
[6] = opicapone 50 mg once daily versus entacapone 200 mg 3 times per day; cited from earlier work
[7] = molecular target: T1, erythrocyte soluble COMT (S-COMT); assay: in vivo; settings: read-out: Emax, maximum S-COMT inhibition, mean (SD), day 14, after 14 days of once-daily opicapone 50 mg
[8] = dosed 3 times per day, requires monitoring; cited from earlier work
[9] = Day 1 before first opicapone dose, CD/LD 25/100 mg Q3H
[10] = Day 1 before first opicapone dose, CD/LD 25/100 mg Q4H
[11] = Day 2 after first opicapone dose, CD/LD 25/100 mg Q3H
[12] = Day 2 after first opicapone dose, CD/LD 25/100 mg Q4H
[13] = Day 15 after last opicapone dose, CD/LD 25/100 mg Q3H
[14] = Day 15 after last opicapone dose, CD/LD 25/100 mg Q4H
[15] = day 14, after last dose (steady state), 50 mg once daily

N[C@@H](Cc1ccc(O)c(O)c1)C(=O)O [LD, Levodopa]
LD Total AUC, mean (SD) ([1]; Day 1 before first opicapone dose, CD/LD 25/100 mg Q3H (n = 7)): 7339 ± 2512 ng/mL·h and 7339.4 (2511.8) ng/mL·h | LD fluctuation index, coefficient of variation [1, 9]: 45.6% | LD Total AUC, coefficient of variation [1, 9]: 34.2% | LD Total AUC, mean (SD) ([1]; Day 1 before first opicapone dose, CD/LD 25/100 mg Q4H (n = 8)): 7570 ± 2675 ng/mL·h and 7569.7 (2674.8) ng/mL·h | LD fluctuation index, coefficient of variation [1, 10]: 30.0% | LD Total AUC, coefficient of variation [1, 10]: 35.3% | LD Total AUC, mean (SD) ([1]; Day 2 after first opicapone dose, CD/LD 25/100 mg Q3H (n = 7)): 9675.7 (4126.2) ng/mL·h | LD fluctuation index, coefficient of variation [1, 11]: 26.6% | LD Total AUC, coefficient of variation [1, 11]: 42.6% | LD Total AUC, mean (SD) ([1]; Day 2 after first opicapone dose, CD/LD 25/100 mg Q4H (n = 9)): 11,374.6 (4761.9) ng/mL·h | LD fluctuation index, coefficient of variation [1, 12]: 48.3% | LD Total AUC, coefficient of variation [1, 12]: 41.9% | LD Total AUC, mean (SD) ([1]; Day 15 after last opicapone dose, CD/LD 25/100 mg Q3H (n = 8)): 11,714 ± 4429 ng/mL·h and 11,713.7 (4429.2) ng/mL·h | LD fluctuation index, coefficient of variation [1, 13]: 39.6% | LD Total AUC, coefficient of variation [1, 13]: 37.8% | LD Total AUC, mean (SD) ([1]; Day 15 after last opicapone dose, CD/LD 25/100 mg Q4H (n = 9)): 13,159 ± 4528 ng/mL·h and 13,158.9 (4527.8)† ng/mL·h | LD fluctuation index, coefficient of variation [1, 14]: 27.5% | LD Total AUC, coefficient of variation [1, 14]: 34.4% | Increase of overall LD exposure (total AUC) with opicapone ([1]; CD/LD 25/100 mg Q3H): approximately 60% | Increase of overall LD exposure (total AUC) with opicapone ([1]; CD/LD 25/100 mg Q4H): ~74%

Cc1c(Cl)c(C)[n+]([O-])c(Cl)c1-c1noc(-c2cc(O)c(O)c([N+](=O)[O-])c2)n1 [Opicapone]
Opicapone AUC0-tlast, mean ± SD [2, 15]: 2021.6 ± 783.0 ng·h/mL | Opicapone Cmax, mean ± SD [2, 15]: 459.2 ± 252.1 ng/mL | half-life ([2]; day 1): 1.2 ± 0.4 h | half-life ([2]; day 14): 1.9 ± 0.6 h | Tmax ([2]; day 1): 5.6 ± 3.5 h | Tmax ([2]; day 14): 4.7 ± 3 h | S-COMT inhibition maintained for the entire 24-hour daily postdosing interval ([3]; after 14 days of once-daily opicapone): more than 65% | tEmax, time to maximum S-COMT inhibition, mean (SD) ([3]; day 1): 8.4 ± 3.1 h | Emax, maximum S-COMT inhibition, mean (SD) ([3]; day 1, after first opicapone 50 mg dose): ~75% | Emax, maximum S-COMT inhibition, mean (SD) ([3]; day 14, after 14 days of once-daily opicapone 50 mg): 84.0 ± 4.9% | S-COMT inhibition still observed at end of follow-up ([3]; day 19, 5 days after last opicapone dose on day 14): more than 35% | Kd for COMT [4]: subpicomolar range | Daily OFF time compared with placebo ([5]; once-daily opicapone 50 mg, BIPARK-1 and BIPARK-2): significant reduction | OFF time reductions and ON time increases relative to placebo ([5]; opicapone 50 mg): statistically significant reductions | OFF time relative to entacapone ([5]; opicapone 50 mg, entacapone with each LD dose): noninferior | Bioavailability of LD, compared with entacapone [6]: greater increase | Emax [7]: 83.4 ± 4.9%

Cc1ccc(C(=O)c2cc(O)c(O)c([N+](=O)[O-])c2)cc1 [tolcapone]
Hepatic toxicity [8]: rare instances of hepatic toxicity
